From PubChem BioAssay AID248 (DTP/NCI, 2004)
“And” between values parts separate entries of the source, which are not always exact repeats. Equal values may be shown once. Inconclusive results and toxic doses are left out. No stated cut-off is given here; in the data, active means T/C of 150% or more; inactive means T/C below 125%. Peptide text beside a SMILES is read from it. * marks the point of attachment. Cbz = O=C(OCc1ccccc1)*; OtBu = CC(C)(C)O*

System: L1210 leukemia ip in BDF1 mice, survival T/C
Test: NCI In Vivo Anticancer Drug Screen. Data for tumor model L1210 Leukemia (intraperitoneal) in B6D2F1 (BDF1) mice
Conditions: endpoint: mean survival time, higher = longer survival
Outline: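 Tumor cells were implanted, animals were treated, and survival was followed. The result divides the treated measurement by the vehicle-control measurement.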

[1] = dose: 100.0 mg/kg/injection, schedule: Q01DX009 (ip), vehicle: saline with Tween-80
[2] = dose: 200.0 mg/kg/injection, schedule: Q01DX009 (ip), vehicle: saline with Tween-80
[3] = dose: 400.0 mg/kg/injection, schedule: Q01DX009 (ip), vehicle: saline with Tween-80
[4] = dose: 100.0 mg/kg/injection, schedule: Q04DX002 (ip), vehicle: saline
[5] = dose: 100.0 mg/kg/injection, schedule: Q04DX003 (ip), vehicle: saline with Tween-80
[6] = dose: 200.0 mg/kg/injection, schedule: Q04DX003 (ip), vehicle: saline with Tween-80
[7] = dose: 400.0 mg/kg/injection, schedule: Q04DX003 (ip), vehicle: saline with Tween-80
[8] = dose: 50.0 mg/kg/injection, schedule: Q01DX001 (ip), vehicle: saline
[9] = dose: 100.0 mg/kg/injection, schedule: Q01DX001 (ip), vehicle: saline
[10] = dose: 200.0 mg/kg/injection, schedule: Q01DX001 (ip), vehicle: saline
[11] = dose: 400.0 mg/kg/injection, schedule: Q01DX001 (ip), vehicle: saline
[12] = dose: 100.0 mg/kg/injection, schedule: Q01DX009 (ip), vehicle: Klucel (hydroxypropylcellulose) (HPC)
[13] = dose: 200.0 mg/kg/injection, schedule: Q01DX009 (ip), vehicle: Klucel (hydroxypropylcellulose) (HPC)
[14] = dose: 400.0 mg/kg/injection, schedule: Q01DX009 (ip), vehicle: Klucel (hydroxypropylcellulose) (HPC)
[15] = dose: 100.0 mg/kg/injection, schedule: Q01DX009 (ip), vehicle: saline
[16] = dose: 200.0 mg/kg/injection, schedule: Q01DX009 (ip), vehicle: saline
[17] = dose: 400.0 mg/kg/injection, schedule: Q01DX009 (ip), vehicle: saline

Measured: T/C

N#C/C(=N\N=Nc1ccccc1)c1cccc2ccccc12
inactive: dose: 100.0 mg/kg/injection, schedule: Q01DX009 (ip), vehicle: gum acacia 94 % of control | dose: 200.0 mg/kg/injection, schedule: Q01DX009 (ip), vehicle: gum acacia 91 % of control

C=C(c1ccccc1)C(C)C(=O)OCC (configuration not stated)
inactive: [1] 96 % of control | [2] 101 % of control | [3] 98 % of control

Cc1ccc2cccnc2c1N (tested in a mixture with another compound)
inactive: dose: 1.56 mg/kg/injection, schedule: Q01DX009 (ip), vehicle: DMSO 101 % of control | dose: 3.12 mg/kg/injection, schedule: Q01DX009 (ip), vehicle: DMSO 97 % of control | dose: 6.25 mg/kg/injection, schedule: Q01DX009 (ip), vehicle: DMSO 95 % of control and 97 % of control | dose: 12.5 mg/kg/injection, schedule: Q01DX009 (ip), vehicle: DMSO 100 % of control | dose: 25.0 mg/kg/injection, schedule: Q01DX009 (ip), vehicle: DMSO 94 % of control and 88 % of control | dose: 25.0 mg/kg/injection, schedule: Q04DX003 (ip), vehicle: DMSO 107 % of control | dose: 50.0 mg/kg/injection, schedule: Q04DX003 (ip), vehicle: DMSO 86 % of control | dose: 100.0 mg/kg/injection, schedule: Q04DX003 (ip), vehicle: DMSO 98 % of control

OCC1OC([Se][Se]C2OC(CO)C(O)C(O)C2O)C(O)C(O)C1O (configuration not stated)
inactive: dose: 6.25 mg/kg/injection, schedule: Q01DX009 (ip), vehicle: saline 99 % of control | dose: 12.5 mg/kg/injection, schedule: Q01DX009 (ip), vehicle: saline 100 % of control | dose: 25.0 mg/kg/injection, schedule: Q01DX009 (ip), vehicle: saline 100 % of control | [4] 105 % of control

COC(=O)C(CCC(=O)OC(C)(C)C)NC(=O)C(NC(=O)OCc1ccccc1)C(C)C (stereo not drawn) (Cbz-Val-Glu(OtBu)-OMe; configuration not given here)
inactive: [1] 98 % of control | [5] 92 % of control | [2] 89 % of control | [6] 95 % of control | [3] 98 % of control | [7] 95 % of control

NCC(=O)c1c[nH]c(=O)[nH]c1=O
inactive: dose: 25.0 mg/kg/injection, schedule: Q01DX001 (ip), vehicle: saline 107 % of control | [8] 100 % of control | [9] 97 % of control and 102 % of control | [10] 115 % of control | [11] 102 % of control

CCOC(=O)c1cnc(SC)nc1Nc1ccc(C)cc1C
inactive: [12] 96 % of control | [13] 101 % of control | [14] 109 % of control

CSc1ssc(=Nc2ccc(C)cc2)c1-c1ccccc1
inactive: [12] 95 % of control | dose: 100.0 mg/kg/injection, schedule: Q04DX003 (ip), vehicle: Klucel (hydroxypropylcellulose) (HPC) 88 % of control | [13] 93 % of control | dose: 200.0 mg/kg/injection, schedule: Q04DX003 (ip), vehicle: Klucel (hydroxypropylcellulose) (HPC) 91 % of control | [14] 93 % of control | dose: 400.0 mg/kg/injection, schedule: Q04DX003 (ip), vehicle: Klucel (hydroxypropylcellulose) (HPC) 89 % of control

CCCCCCCC/C(C=O)=C\c1ccc(C)cc1
inactive: [9] 86 % of control | [10] 102 % of control | [11] 87 % of control

CC(C)c1ccccc1OS(=O)(=O)c1c(F)c(F)c(F)c(F)c1F
inactive: dose: 6.25 mg/kg/injection, schedule: Q01DX001 (ip), vehicle: Klucel (hydroxypropylcellulose) (HPC) 103 % of control | dose: 6.25 mg/kg/injection, schedule: Q01DX009 (ip), vehicle: saline with Tween-80 108 % of control | dose: 12.5 mg/kg/injection, schedule: Q01DX001 (ip), vehicle: Klucel (hydroxypropylcellulose) (HPC) 97 % of control | dose: 12.5 mg/kg/injection, schedule: Q01DX009 (ip), vehicle: saline with Tween-80 101 % of control | dose: 25.0 mg/kg/injection, schedule: Q01DX001 (ip), vehicle: Klucel (hydroxypropylcellulose) (HPC) 101 % of control | dose: 25.0 mg/kg/injection, schedule: Q01DX009 (ip), vehicle: saline with Tween-80 103 % of control

CSc1ncnc2c1ncn2N(CCCl)C(C)=O
inactive: dose: 25.0 mg/kg/injection, schedule: Q01DX001 (ip), vehicle: other 96 % of control | dose: 25.0 mg/kg/injection, schedule: Q01DX009 (ip), vehicle: other 101 % of control | dose: 25.0 mg/kg/injection, schedule: Q04DX003 (ip), vehicle: other 100 % of control | dose: 50.0 mg/kg/injection, schedule: Q01DX001 (ip), vehicle: other 98 % of control | dose: 50.0 mg/kg/injection, schedule: Q01DX009 (ip), vehicle: other 105 % of control | dose: 50.0 mg/kg/injection, schedule: Q04DX003 (ip), vehicle: other 103 % of control | dose: 100.0 mg/kg/injection, schedule: Q01DX001 (ip), vehicle: other 96 % of control and 105 % of control | dose: 100.0 mg/kg/injection, schedule: Q01DX009 (ip), vehicle: other 97 % of control | dose: 100.0 mg/kg/injection, schedule: Q04DX003 (ip), vehicle: other 102 % of control

O=C(N/N=C/c1cccc([N+](=O)[O-])c1)c1ccc(Cl)c(Cl)c1
inactive: dose: 50.0 mg/kg/injection, schedule: Q01DX009 (ip), vehicle: saline with Tween-80 93 % of control | [1] 93 % of control | [2] 90 % of control

CCN(CC)c1ccc2c(c1)C(O)c1ccccc1-2 (configuration not stated)
inactive: [5] 94 % of control and 108 % of control | [6] 104 % of control and 105 % of control | [7] 102 % of control and 108 % of control

CC1CN1CO (configuration not stated)
inactive: dose: 75.0 mg/kg/injection, schedule: Q01DX001 (ip), vehicle: saline 109 % of control

CCOC(=O)C1CCC(=O)NC1=O (configuration not stated)
inactive: [15] 111 % of control | dose: 100.0 mg/kg/injection, schedule: Q04DX003 (ip), vehicle: saline 98 % of control | [16] 108 % of control | dose: 200.0 mg/kg/injection, schedule: Q04DX003 (ip), vehicle: saline 102 % of control | [17] 101 % of control | dose: 400.0 mg/kg/injection, schedule: Q04DX003 (ip), vehicle: saline 104 % of control

COc1ccc(Cl)cc1NC(=O)c1cccc([N+](=O)[O-])c1
inactive: [12] 98 % of control | [13] 98 % of control | [14] 102 % of control

Nc1ccc2c(c1)C(=O)c1ccccc1C2=O
inactive: [8] 98 % of control | [9] 102 % of control | [15] 92 % of control | [4] 100 % of control | [10] 102 % of control | [16] 92 % of control | dose: 200.0 mg/kg/injection, schedule: Q04DX002 (ip), vehicle: saline 93 % of control | [11] 102 % of control | [17] 92 % of control | dose: 400.0 mg/kg/injection, schedule: Q04DX002 (ip), vehicle: saline 93 % of control

CC(N)CC(N)CC(=O)O (configuration not stated)
inactive: [9] 96 % of control and 98 % of control | [10] 98 % of control and 104 % of control | [11] 91 % of control and 102 % of control

CCc1ccc2ccc3c4ccccc4ccc3[n+]2c1
inactive: dose: 10.0 mg/kg/injection, schedule: Q01DX001 (ip), vehicle: saline 93 % of control | dose: 20.0 mg/kg/injection, schedule: Q01DX001 (ip), vehicle: saline 90 % of control | dose: 40.0 mg/kg/injection, schedule: Q01DX001 (ip), vehicle: saline 94 % of control
